Assay results published in patent publication US20220143179A1, “DRUG DELIVERY FOR COMBINATION OF EPIGENETIC MODULATION AND IMMUNE CHECKPOINT BLOCKADE” (NORTH CAROLINA STATE UNIVERSITY, priority 2019, published 2022).
Where two headings read alike, the source gives them in different places.

Test system: B16F10 melanoma cells
Experiment: MTT assay, cytotoxicity of hypomethylating agents
Assay type: cell-based
Settings: Mus musculus, read-out: IC50 against B16F10 melanoma cells
Experimental: First, MTT assays were conducted to compare the cytotoxicity among these agents and determine the appropriate concentration to induce the expression of TAAs.
B16F10 cells were cultured into 96-well plates at a density of 5×10^3 cells per well overnight. […] Finally, the rate of cell viability was calculated according to the absorbance at 560 nm by a plate reader (Power Wave XS, Bio-TEK, USA).

Compound: O=c1ncccn1[C@@H]1O[C@H](CO)[C@@H](O)[C@H]1O [Zeb, Zebularine]
- IC50 (B16-F10, MTT, 72 h incubation): 69.2 µM

Compound: Nc1ncn([C@@H]2O[C@H](CO)[C@@H](O)[C@H]2O)c(=O)n1 [AC, 5-Azacytidine]
- IC50 (B16-F10, MTT, 72 h incubation): 49 µM

Compound: Nc1nc(=O)n([C@H]2C[C@H](O)[C@@H](CO)O2)cc1F [5-F, 5-Fluoro-2′-deoxycytidine]
- IC50 (B16-F10, MTT, 72 h incubation): 1.05 µM

Compound: Nc1ncn([C@H]2C[C@H](O)[C@@H](CO)O2)c(=O)n1 [DAC, 5-Aza-2′-deoxycytidine]
- IC50 (B16-F10, 72 h): 2.55 µM
